Patent publication US12060355B2, “Compounds for use in the treatment of fascioliasis” (Merck Patent GmbH, priority 2018, dated 2024)
Where two headings read alike, the source gives them in different places.

Key:
human MRC-5 cell line = assay: Cytotoxicity against human MRC-5 cell line; type: cell-based
Experimental: (§1) The routine biological assays using adult or juvenile S. mansoni worms and cytotoxicity assays using MRC-5 cells have been disclosed previously in Mansour, N. R., et al. (2016). “High Throughput Screening Identifies Novel Lead Compounds with Activity against Larval, Juvenile and Schistosoma mansoni PLoS Negl Trop Dis 10(4): e0004659. Cytotoxicity assays using the HepG2 cell line were carried out as described in Molecular Diversity (2015) 19, 251-261. • (a) F. hepatica adult fluke motility score tested at 5 μM. Motility is scored as per the table below: • Good movement Score 1 • (Curled, sticking on wall, movement on petri plate or conical flask) • Moderate movement Score 2 • (Less vigor but more than 10 seconds pulses or peristaltic waves) • Resting Score 3 • (Less than 10 second pulses in head and body) • Apathetic Score 4 • (Head and body with less than 2 second pulses) • Faint movement of suckers Score 5 • (Movement of oral or ventral suckers only, whole body paralyzed) • Inert Score 6 • (No movement at all or dead) • (b) S. mansoni adult worms • (c) S. mansoni juvenile worms • (d) S. haemotobium adult worms • (e) Cytotoxicity against human MRC-5 cell line • (f) Cytotoxicity against human HepG2 cell lines

human HepG2 cell lines = type: cell-based; details: human HepG2 cell line
S. mansoni adult worms = assay: S. mansoni adult worm assay, in vitro; type: cell-based; details: Schistosoma mansoni, read-out: S. mansoni Adult
Experimental: as §1

[1] = test system: S. mansoni juvenile worms; assay: S. mansoni juvenile worm assay, in vitro; type: cell-based; details: Schistosoma mansoni, read-out: S. mansoni Juvenile
Experimental: as §1

F. hepatica adult fluke = F. hepatica adult fluke motility score, in vitro; type: cell-based, Fasciola hepatica; parameters: key: Good movement Score 1 • (Curled, sticking on wall, movement on petri plate or conical flask); Moderate movement Score 2 • (Less vigor but more than 10 seconds pulses or peristaltic waves); Resting Score 3 • (Less than 10 second pulses in head and body); Apathetic Score 4 • (Head and body with less than 2 second pulses); Faint movement of suckers Score 5 • (Movement of oral or ventral suckers only, whole body paralyzed); Inert Score 6 • (No movement at all or dead); details: for F. hepatica motility score after 24 h / F. hepatica motility score after 48 h / F. hepatica motility score after 72 h: adult fluke; for F. hepatica motility score after 24 h: score 1 (good movement) to 6 (inert); for F. hepatica motility score after 48 h / F. hepatica motility score after 72 h: score 1 to 6 (inert)
Description: The routine biological assays using adult liver fluke are described in Alessandra Crusco, Cinzia Bordoni, Anand Chakroborty, Kezia C. L. Whatley, Helen Whiteland, Andrew D. Westwell, Karl F. Hoffmann, “Design, synthesis and anthelmintic activity of 7-keto-sempervirol analogues”, European Journal of Medicinal Chemistry, Volume 152, 2018, Pages 87-100.
The routine biological assays using adult or juvenile S. mansoni worms and cytotoxicity assays using MRC-5 cells have been disclosed previously in Mansour, N. R., et al. (2016). “High Throughput Screening Identifies Novel Lead Compounds with Activity against Larval, Juvenile and Schistosoma mansoni PLoS Negl Trop Dis 10(4): e0004659. […] Motility is scored as per the table below: • Good movement Score 1 • (Curled, sticking on wall, movement on petri plate or conical flask) • Moderate movement Score 2 • (Less vigor but more than 10 seconds pulses or peristaltic waves) • Resting Score 3 • (Less than 10 second pulses in head and body) • Apathetic Score 4 • (Head and body with less than 2 second pulses) • Faint movement of suckers Score 5 • (Movement of oral or ventral suckers only, whole body paralyzed) • Inert Score 6 • (No movement at all or dead) • (b) S. mansoni adult worms • (c) S. mansoni juvenile worms • (d) S. haemotobium adult worms • (e) Cytotoxicity against human MRC-5 cell line • (f) Cytotoxicity against human HepG2 cell lines

juvenile worms = assay: In vivo mouse model infected with juvenile worms, worm recovery; parameters: species or system S. mansoni; details: Schistosoma mansoni, 360 h, mice, juvenile infection, Formulation F1, read-out: Percent worm reduction
Experimental: Methods for the subcutaneous infection of mice and subsequent worm recovery were as described in Mansour et al (2016) except that infection was with 150 cercariae and the perfusion medium was citrate saline (0.9% sodium chloride, 1.5% tri-sodium citrate). Perfusion was carried out 8 days (adult infections) or 15 days (juvenile infections) after treatment. Perfuseate was collected into 30 mL universal tubes. RBC (Red Blood Cells) were removed by allowing the perfuseate to settle for 10 min, removal of most of the supernatant and washing once as above with 10 mL perfusion medium. A drop of dilute aqueous saponin solution was added to lyse any remaining RBC and the worm suspension poured into a grid-marked small petri dish. The tube was rinsed out into the petri dish and examined for any remaining worms. Worms were counted using a dissecting microscope. The mouse livers removed after perfusion were squashed between two thick glass plates and examined visually and any remaining worms added to those counted as above.
For testing efficacy against the juvenile worms, treatment was on day 25 post infection and for testing against the adult worms on day 42 post infection. Drugs were suspended in 7% Tween-80/3% Ethanol/double distilled water and drug dispersal was facilitated by vortexing and using a sonicating water bath (Formulation F1). […]

COc1ccc(-c2c(C(C)C)nc3cnc(-c4cccc(C(F)(F)F)c4)cn23)cc1O [Example 1, 2-methoxy-5-[2-(propan-2-yl)-6-[3-(trifluoromethyl)phenyl]imidazo[1,2-a]pyrazin-3-yl]phenol]
Cytotox MRC-5 (human MRC-5 cell line): 21.8 µM | Cytotox HepG2 (human HepG2 cell lines): >11.1 µM

CC(C)c1nc2cnc(-c3cccc(C(F)(F)F)c3)cn2c1-c1ccc(OP(=O)(O)O)cc1F [Example 3, 3-fluoro-4-[2-(propan-2-yl)-6-[3-(trifluoromethyl)phenyl]imidazo[1,2-a]pyrazin-3-yl]phenoxyphosphonic acid]
IC50 (S. mansoni adult worms): < 49 nM | IC50 [1]: 130 nM | Cytotox HepG2 (human HepG2 cell lines): 9.2 µM

CCc1nc2cnc(-c3cccc(C(F)(F)F)c3)cn2c1-c1ccc(OC)c(O)c1 [Example 7, 2-methoxy-5-[2-ethyl-6-[3-(trifluoromethyl)phenyl]imidazo[1,2-a]pyrazin-3-yl]phenol]
Cytotox MRC-5 (human MRC-5 cell line): >50 µM | Cytotox HepG2 (human HepG2 cell lines): >30 µM

CCc1nc2cnc(-c3cccc(C(F)(F)F)c3)cn2c1-c1ccc(O)cc1F [Example 8, 3-fluoro-4-[2-ethyl-6-[3-(trifluoromethyl)phenyl]imidazo[1,2-a]pyrazin-3-yl]phenol]
Cytotox MRC-5 (human MRC-5 cell line): 17.3 µM | Cytotox HepG2 (human HepG2 cell lines): 18.7 µM

CC(C)c1nc2cnc(-c3cccc(C(F)(F)F)c3)cn2c1-c1ccc(O)cc1F [Example 9, 3-fluoro-4-[2-(propan-2-yl)-6-[3-(trifluoromethyl)phenyl]imidazo[1,2-a]pyrazin-3-yl]phenol]
Cytotox MRC-5 (human MRC-5 cell line): 13.7 µM | Cytotox HepG2 (human HepG2 cell lines): 9 µM

Cc1nc2cnc(-c3ccc(F)c(C(F)(F)F)c3)cn2c1-c1ccc(O)cc1F [Example 10, 3-fluoro-4-[2-methyl-6-[4-fluoro-3-(trifluoromethyl)phenyl]imidazo[1,2-a]pyrazin-3-yl]phenol]
Cytotox MRC-5 (human MRC-5 cell line): 14.4 µM | Cytotox HepG2 (human HepG2 cell lines): >11.1 µM

CC(C)c1nc2cnc(-c3ccc(F)c(C(F)(F)F)c3)cn2c1-c1c(F)cc(O)cc1F [Example 17, 3,5-difluoro-4-[2-(propan-2-yl)-6-[4-fluoro-3-(trifluoromethyl)phenyl]imidazo[1,2-a]pyrazin-3-yl]phenol]
Mean motility score of F hepatica at 24 h (F. hepatica adult fluke; 0.04 μM): 1, 1, 1 | Mean motility score of F hepatica at 48 h (F. hepatica adult fluke; 0.04 μM): 1, 1, 1 | Mean motility score of F hepatica at 72 h (F. hepatica adult fluke; 0.04 μM): 1, 1, 1 | Mean motility score of F hepatica at 24 h (F. hepatica adult fluke; 0.2 μM): 3 | Mean motility score of F hepatica at 48 h (F. hepatica adult fluke; 0.2 μM): 3 | Mean motility score of F hepatica at 72 h (F. hepatica adult fluke; 0.2 μM): 6 | Mean motility score of F hepatica at 24 h (F. hepatica adult fluke; 1 μM): 6, 6, 6 | Mean motility score of F hepatica at 48 h (F. hepatica adult fluke; 1 μM): 6, 6, 6 | Mean motility score of F hepatica at 72 h (F. hepatica adult fluke; 1 μM): 6, 6, 6 | Mean motility score of F hepatica at 24 h (F. hepatica adult fluke; 5 μM): 6, 6, 6 | Mean motility score of F hepatica at 48 h (F. hepatica adult fluke; 5 μM): 6, 6, 6 | Mean motility score of F hepatica at 72 h (F. hepatica adult fluke; 5 μM): 6, 6, 6 | F. hepatica motility score after 24 h (F. hepatica adult fluke; 5 μM): (6, 6, 6) at 5 μM | F. hepatica motility score after 48 h (F. hepatica adult fluke; 5 μM): (6, 6, 6) at 5 μM | F. hepatica motility score after 72 h (F. hepatica adult fluke; 5 μM): (6, 6, 6) at 5 μM | Cytotox HepG2 (human HepG2 cell lines): 7.1 µM | inhibition in vivo at 50 mg/kg (juvenile worms; oral 50 mg/kg): 38% | inhibition in vivo at 200 mg/kg (juvenile worms; oral 200 mg/kg): 84%

CC(C)c1nc2cnc(-c3ccc(F)c(C(F)(F)F)c3)cn2c1-c1c(F)cc(OP(=O)(O)O)cc1F [Example 40, 3,5-difluoro-4-{6-[4-fluoro-3-(trifluoromethyl)phenyl]-2-(propan-2-yl)imidazo[1,2-a]pyrazin-3-yl}phenoxyphosphonic acid]
IC50 (S. mansoni adult worms): 27 nM | IC50 [1]: 25 nM | Cytotox HepG2 (human HepG2 cell lines): 6.5 µM

CC(C)c1nn2ccc(-c3ccc(F)c(C(F)(F)F)c3)cc2c1-c1ccc2[nH]ncc2c1F [Example 55, 4-Fluoro-5-[5-(4-fluoro-3-trifluoromethyl-phenyl)-2-isopropylpyrazolo[1,5-a]pyridin-3-yl]-1H-indazole]
F. hepatica motility score after 24 h (F. hepatica adult fluke; 5 μM): (6, 6, 6) at 5 μM | F. hepatica motility score after 48 h (F. hepatica adult fluke; 5 μM): (6, 6, 6) at 5 μM | F. hepatica motility score after 72 h (F. hepatica adult fluke; 5 μM): (6, 6, 6) at 5 μM | IC50 (S. mansoni adult worms; adult worms in vitro): 28 nM | IC50 ([1]; juvenile worms in vitro, IC50): 22 nM | Cytotox HepG2 (human HepG2 cell lines): 11.1 µM
